Measured values published in patent US6274715A, “Tricyclic erythromycin derivatives” (priority 1997, dated 2001).
In brackets after ≈: the same amount, converted by molar mass.

What was measured:
Assay type in all cases: cell-based
[1] = system: STAPHYLOCOCCUS AUREUS NCTC10649M; assay: In vitro antibacterial activity, MIC, BHI agar dilution; conditions: S. aureus NCTC10649M, unit assumed
[2] = system: PSEUDOMONAS AERUGINOSA BMH10; assay: as above; conditions: P. aeruginosa BMH10, unit assumed
[3] = system: ACINETOBACTER CALCOACETICUS CMX 669; assay: as above; conditions: A. calcoaceticus CMX 669, unit assumed
[4] = system: ESCHERICHIA COLI KNK 437; conditions: E. coli KNK 437; BHI agar; unit assumed
[5] = system: ESCHERICHIA COLI DC-2; assay: In vitro antibacterial activity, MIC, BHI agar dilution; conditions: E. coli DC-2, unit assumed
[6] = system: ENTEROBACTER AEROGENES ATCC 13048; assay: as above; conditions: E. aerogenes ATCC 13048, unit assumed
[7] = system: M[…] ATCC 9341; assay: as above; conditions: M. luteus ATCC 9341, unit assumed
Method in brief: (§1)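 MIC was read visually as the lowest drug concentration showing no growth, a slight haze or sparsely isolated colonies relative to a compound-free BHI plate. Plates held serial aqueous dilutions in BHI agar, were spot-inoculated with 1:100 (or 1:10) culture dilutions and incubated 20 to 24 hours at 35-37° C.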

[8] = system: M[…] ATCC 4698; assay: as above; conditions: M. luteus ATCC 4698, unit assumed
Method in brief: as §1

[9] = system: EN[…] ATCC 8043; assay: as above; conditions: E. faecium ATCC 8043, unit assumed
Method in brief: as §1

[10] = system: STR[…] 508; assay: as above; conditions: S. agalactiae CMX 508, unit assumed
Method in brief: as §1

[11] = system: ESCHERICHIA COLI H560; assay: as above; conditions: E. coli H560, unit assumed
[12] = system: PSEUDOMONAS AERUGINOSA DPHD-5263; assay: as above; conditions: P. aeruginosa DPHD-5263, unit assumed
[13] = system: PSEUDOMONAS AERUGINOSA 5007; assay: as above; conditions: P. aeruginosa 5007, unit assumed
[14] = system: H. Influenza Dill AMP R; assay: In vitro antibacterial activity against H. Influenza Dill AMP R, MIC; conditions: separate assay, unit assumed
Method: Representative compounds of the present invention were assayed in vitro for antibacterial activity as follows: Twelve petri dishes containing successive aqueous dilutions of the test compound mixed with 10 mL of sterilized Brain Heart Infusion (BHI) agar (Difco 0418-01-5) were prepared. Each plate was inoculated with 1:100 (or 1:10 for slow-growing strains, such as Micrococcus and Streptococcus) dilutions of up to 32 different microorganisms, using a Steers replicator block. The inoculated plates were incubated at 35-37° C. for 20 to 24 hours. In addition, a control plate, using BHI agar containing no test compound, was prepared and incubated at the beginning and end of each test.
After incubation, each plate was visually inspected. The minimum inhibitory concentration (MIC) was defmed as the lowest concentration of drug yielding no growth, a slight haze, or sparsely isolated colonies on the inoculum spot as compared to the growth control.
In a separate assay representative compounds of the invention were assayed in vitro for antibacterial activity against the H. Influenza Dill AMP R strain, according to the protocol described above.

[15] = system: PSEUDOMONAS AERUGINOSA DPHD-2862; assay: In vitro antibacterial activity, MIC, BHI agar dilution; conditions: P. aeruginosa DPHD-2862, unit assumed
[16] = system: KLEBSIELLA PNEUMONIAE ATCC 8045; assay: as above; conditions: K. pneumoniae ATCC 8045, unit assumed
[17] = system: ESCHERICHIA COLI SS; assay: as above; conditions: E. coli SS, unit assumed
[18] = system: STREPTOCOCCUS PYOGENES 930; assay: as above; conditions: S. pyogenes 930, unit assumed
[19] = system: STAPHYLOCOCCUS AUREUS A-5278; assay: as above; conditions: S. aureus A-5278, unit assumed
[20] = system: ESCHERICHIA COLI JUHL; conditions: E. coli JUHL; BHI agar; unit assumed
[21] = system: STAPHYLOCOCCUS AUREUS A5177; assay: In vitro antibacterial activity, MIC, BHI agar dilution; conditions: S. aureus A5177, unit assumed
[22] = system: PSEUDOMONAS AERUGINOSA K799/61; assay: as above; conditions: P. aeruginosa K799/61, unit assumed
[23] = system: STAPHYLOCOCCUS AUREUS CMX 642A; assay: as above; conditions: S. aureus CMX 642A, unit assumed
[24] = system: STREPTOCOCCUS BOVIS A-5169; assay: as above; conditions: S. bovis A-5169, unit assumed
[25] = system: STAPHYLOCOCCUS EPIDERMIDIS 3519; conditions: S. epidermidis 3519; BHI agar; unit assumed
[26] = system: PSEUDOMONAS CEPACIA 296I; assay: In vitro antibacterial activity, MIC, BHI agar dilution; conditions: P. cepacia 296I, unit assumed
[27] = system: STAPHYLOCOCCUS AUREUS 1775; assay: as above; conditions: S. aureus 1775, unit assumed
[28] = system: STREPTOCOCCUS PYOGENES EES61; assay: as above; conditions: S. pyogenes EES61, unit assumed
[29] = system: PROVIDENCIA STUARTII CMX 640; conditions: P. stuartii CMX 640; BHI agar; unit assumed
[30] = system: PSEUDOMONAS AERUGINOSA K799/WT; assay: In vitro antibacterial activity, MIC, BHI agar dilution; conditions: P. aeruginosa K799/WT, unit assumed
[31] = system: STAPHYLOCOCCUS AUREUS CMX 553; assay: as above; conditions: S. aureus CMX 553, unit assumed
[32] = system: CANDIDA ALBICANS CCH 442; assay: as above; conditions: C. albicans CCH 442, unit assumed
[33] = system: MYCOBACTERIUM SMEGMATIS ATCC 114; assay: as above; conditions: M. smegmatis ATCC 114, unit assumed
[34] = system: STAPHYLOCOCCUS AUREUS ATCC 6538P; assay: as above; conditions: S. aureus ATCC 6538P, 35-37° C., 20 to 24 hours, unit assumed
[35] = system: STREPTOCOCCUS PYOGENES PIU 2548; assay: as above; conditions: S. pyogenes PIU 2548, unit assumed

Structure (SMILES)	MIC [1]	MIC [2]	MIC [4]	MIC [5]	MIC [6]	MIC [7]	MIC [8]	MIC [9]	MIC [10]	MIC [11]	MIC [12]	MIC [13]	MIC [14]	MIC [15]	MIC [16]	MIC [17]	MIC [18]	MIC [19]	MIC [20]	MIC [21]	other results
CC[C@H]1OC(=O)[C@H](C)C(=O)[C@H](C)[C@@H](O[C@@H]2O[C@H](C)C[C@H](N(C)C)[C@H]2O)[C@](C)(OC)C[C@@H](C)C2=NC3CN(C(C)=O)CC3N3C(=O)O[C@@]1(C)[C@H]3[C@H]2C (some centres unmarked) [Example 125]	6.2 µg/mL (≈ 8.6 µM)	> 100 µg/mL	> 100 µg/mL	> 100 µg/mL	> 100 µg/mL	0.78 µg/mL (≈ 1.08 µM)	6.2 µg/mL (≈ 8.6 µM)	1.56 µg/mL (≈ 2.16 µM)	0.39 µg/mL (≈ 0.541 µM)	> 100 µg/mL	> 100 µg/mL	> 100 µg/mL	128 µg/mL (≈ 178 µM)	> 100 µg/mL	> 100 µg/mL	0.78 µg/mL (≈ 1.08 µM)	> 100 µg/mL	> 100 µg/mL	> 100 µg/mL	6.2 µg/mL (≈ 8.6 µM)	MIC [3]: 100 µg/mL (≈ 139 µM); MIC [22]: 6.2 µg/mL (≈ 8.6 µM); MIC [23]: 12.5 µg/mL (≈ 17.3 µM); MIC [24]: 0.2 µg/mL (≈ 0.277 µM); MIC [25]: 6.2 µg/mL (≈ 8.6 µM); MIC [26]: > 100 µg/mL; MIC [27]: > 100 µg/mL; MIC [28]: 0.1 µg/mL (≈ 0.139 µM); MIC [29]: > 100 µg/mL; MIC [30]: > 100 µg/mL; MIC [31]: 6.2 µg/mL (≈ 8.6 µM); MIC [32]: > 100 µg/mL; MIC [33]: 50 µg/mL (≈ 69.4 µM)
CC[C@H]1OC(=O)[C@H](C)C(=O)[C@H](C)[C@@H](O[C@@H]2O[C@H](C)C[C@H](N(C)C)[C@H]2O)[C@](C)(OC)C[C@@H](C)C2=NC3CN(CCN(C)C)CC3N3C(=O)O[C@@]1(C)[C@H]3[C@H]2C (some centres unmarked) [Example 129]	1.56 µg/mL (≈ 2.08 µM)	> 100 µg/mL	> 100 µg/mL	50 µg/mL (≈ 66.7 µM)	100 µg/mL (≈ 133 µM)	0.2 µg/mL (≈ 0.267 µM)	1.56 µg/mL (≈ 2.08 µM)	0.39 µg/mL (≈ 0.52 µM)	0.05 µg/mL (≈ 0.0667 µM)	50 µg/mL (≈ 66.7 µM)	> 100 µg/mL	> 100 µg/mL	64 µg/mL (≈ 85.3 µM)	> 100 µg/mL	100 µg/mL (≈ 133 µM)	0.78 µg/mL (≈ 1.04 µM)	> 100 µg/mL	> 100 µg/mL	100 µg/mL (≈ 133 µM)	1.56 µg/mL (≈ 2.08 µM)	MIC [34]: 1.56 µg/mL (≈ 2.08 µM); MIC [35]: 3.1 µg/mL (≈ 4.13 µM); MIC [22]: 1.56 µg/mL (≈ 2.08 µM); MIC [23]: 1.56 µg/mL (≈ 2.08 µM); MIC [24]: 0.05 µg/mL (≈ 0.0667 µM); MIC [25]: 1.56 µg/mL (≈ 2.08 µM); MIC [26]: > 100 µg/mL; MIC [27]: > 100 µg/mL; MIC [28]: 0.02 µg/mL (≈ 0.0267 µM); MIC [29]: > 100 µg/mL; MIC [30]: > 100 µg/mL; MIC [31]: 1.56 µg/mL (≈ 2.08 µM); MIC [32]: > 100 µg/mL; MIC [33]: 50 µg/mL (≈ 66.7 µM)
CC[C@H]1OC(=O)[C@H](C)C(=O)[C@H](C)[C@@H](O[C@@H]2O[C@H](C)C[C@H](N(C)C)[C@H]2O)[C@](C)(OC)C[C@@H](C)C2=NCC(COC(=O)c3ccccc3)N3C(=O)O[C@@]1(C)[C@H]3[C@H]2C (some centres unmarked) [Example 139]	0.1 µg/mL (≈ 0.13 µM)	> 100 µg/mL	50 µg/mL (≈ 64.8 µM)	25 µg/mL (≈ 32.4 µM)	100 µg/mL (≈ 130 µM)	0.05 µg/mL (≈ 0.0648 µM)	0.2 µg/mL (≈ 0.259 µM)	0.02 µg/mL (≈ 0.0259 µM)	0.02 µg/mL (≈ 0.0259 µM)	25 µg/mL (≈ 32.4 µM)	> 100 µg/mL	> 100 µg/mL	2 µg/mL (≈ 2.59 µM)	100 µg/mL (≈ 130 µM)	100 µg/mL (≈ 130 µM)	0.39 µg/mL (≈ 0.505 µM)	25 µg/mL (≈ 32.4 µM)	> 100 µg/mL	25 µg/mL (≈ 32.4 µM)	0.1 µg/mL (≈ 0.13 µM)	MIC [34]: 0.1 µg/mL (≈ 0.13 µM); MIC [35]: 0.39 µg/mL (≈ 0.505 µM); MIC [22]: 0.39 µg/mL (≈ 0.505 µM); MIC [23]: 0.1 µg/mL (≈ 0.13 µM); MIC [24]: ≤ 0.005 µg/mL; MIC [25]: 0.1 µg/mL (≈ 0.13 µM); MIC [26]: 25 µg/mL (≈ 32.4 µM); MIC [27]: > 100 µg/mL; MIC [28]: 0.01 µg/mL (≈ 0.013 µM); MIC [29]: > 100 µg/mL; MIC [30]: 100 µg/mL (≈ 130 µM); MIC [31]: 0.1 µg/mL (≈ 0.13 µM); MIC [32]: > 100 µg/mL; MIC [33]: 0.78 µg/mL (≈ 1.01 µM)
